Measured values taken from paper PMC11078216, “Discovery of potent and selective activity-based probes (ABPs) for the deubiquitinating enzyme USP30” (RSC Chemical Biology, 2024).

Molecular target: T1, USP30 (Homo sapiens, UniProt Q70CQ3)
T1 construct: We next determined cellular engagement of endogenous USP30 with IMP-2587 or IMP-2586; endogenous in cells; host or cells: HEK293T
T1 sequence (Q70CQ3 1-517): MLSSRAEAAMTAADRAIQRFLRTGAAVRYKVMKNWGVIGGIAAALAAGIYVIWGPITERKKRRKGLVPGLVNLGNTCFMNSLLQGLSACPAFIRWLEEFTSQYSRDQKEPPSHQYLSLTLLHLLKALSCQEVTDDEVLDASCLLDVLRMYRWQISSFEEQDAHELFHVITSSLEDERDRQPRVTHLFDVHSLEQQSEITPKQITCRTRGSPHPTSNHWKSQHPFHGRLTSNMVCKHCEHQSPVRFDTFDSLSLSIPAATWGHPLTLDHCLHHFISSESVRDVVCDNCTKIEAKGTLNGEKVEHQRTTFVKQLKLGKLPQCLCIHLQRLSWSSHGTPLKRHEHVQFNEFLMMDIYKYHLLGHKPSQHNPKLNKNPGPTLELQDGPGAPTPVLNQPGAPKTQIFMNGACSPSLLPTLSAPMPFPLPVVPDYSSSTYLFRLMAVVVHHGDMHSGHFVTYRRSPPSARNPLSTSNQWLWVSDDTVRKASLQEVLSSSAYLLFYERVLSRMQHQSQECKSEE
Experiment: In-cell target engagement using HA-Ub-VME competition, immunoblot
Type: cell-based
Conditions: HEK293T cells, 1 hour, in-lysate HA-Ub-VME competition, western blot
Experimental: We next determined cellular engagement of endogenous USP30 with IMP-2587 or IMP-2586. […] In-cell concentration-dependent competition by IMP-2587 and IMP-2586 for USP30 were confirmed below 100 nM probe (Fig. 2b and c), whilst engagement of an exemplar unrelated DUB, UCHL1, occurred only at a much higher concentration (30 000 nM). We hypothesise that incomplete modification of USP30 by HA-Ub-VME is likely due to limited retention of USP30 activity in cell lysates, which have likely had the USP30 transmembrane domain compromised, highlighting the potential utility of a small molecule USP30 ABP applicable directly in intact cells. Direct USP30 target engagement by IMP-2587 and IMP-2586 was confirmed in HEK293T cells following 1 h probe treatment followed by cell lysis and CuAAC bio-orthogonal ligation to capture reagent azido-TAMRA-biotin (AzTB) for IMP-2587 or alkyne-TAMRA-biotin for IMP-2586 (Fig. 3a).[27] […] This unspecific background labelling is presumably due to the previously reported higher off-target CuAAC reactivity of an alkyne-bearing capture reagent, applied here due to incorporation of an azide tag in IMP-2586.[28] Moreover, the labelling of USP30 was further confirmed by biotin pulldown and immunoblotting.
2) USP30 in-cell engagement analysis […]
Protein concentration was determined by DC Protein assay (Bio-RAD). […]

SMILES | probe concentration at which in-cell competition for USP30 was confirmed
N#CN1CC[C@@H](NC(=O)c2cc(-c3ccccc3Oc3ccc(N=[N+]=[N-])cc3)n[nH]2)C1 [IMP-2586] | below 100 nM
C#Cc1cccc(-c2cc(NC(=O)CC3CCN(C#N)C3)on2)c1 (centres unmarked) [IMP-2587] | below 100 nM
